Laboratory results taken from PMC5444442, “Flagellin peptide flg22 gains access to long-distance trafficking in Arabidopsis via its receptor, FLS2” (Journal of Experimental Botany, 2017).
Peptide text beside a SMILES is read from it.

What was measured:
[1] = biological target: T1, FLS2 (Arabidopsis thaliana, UniProt Q9FL28); assay: ROS assay in leaf discs; format: cell-based; settings: flg22-induced ROS; Supplementary Fig. S1B
T1 construct: treating Col and fls2 leaf discs (prefloated on water overnight) with 1 μM peptide and measuring ROS induction; from tissue; host or cells: Arabidopsis thaliana Col leaf discs (fls2 mutant as negative control)
T1 sequence (Q9FL28 24-1173): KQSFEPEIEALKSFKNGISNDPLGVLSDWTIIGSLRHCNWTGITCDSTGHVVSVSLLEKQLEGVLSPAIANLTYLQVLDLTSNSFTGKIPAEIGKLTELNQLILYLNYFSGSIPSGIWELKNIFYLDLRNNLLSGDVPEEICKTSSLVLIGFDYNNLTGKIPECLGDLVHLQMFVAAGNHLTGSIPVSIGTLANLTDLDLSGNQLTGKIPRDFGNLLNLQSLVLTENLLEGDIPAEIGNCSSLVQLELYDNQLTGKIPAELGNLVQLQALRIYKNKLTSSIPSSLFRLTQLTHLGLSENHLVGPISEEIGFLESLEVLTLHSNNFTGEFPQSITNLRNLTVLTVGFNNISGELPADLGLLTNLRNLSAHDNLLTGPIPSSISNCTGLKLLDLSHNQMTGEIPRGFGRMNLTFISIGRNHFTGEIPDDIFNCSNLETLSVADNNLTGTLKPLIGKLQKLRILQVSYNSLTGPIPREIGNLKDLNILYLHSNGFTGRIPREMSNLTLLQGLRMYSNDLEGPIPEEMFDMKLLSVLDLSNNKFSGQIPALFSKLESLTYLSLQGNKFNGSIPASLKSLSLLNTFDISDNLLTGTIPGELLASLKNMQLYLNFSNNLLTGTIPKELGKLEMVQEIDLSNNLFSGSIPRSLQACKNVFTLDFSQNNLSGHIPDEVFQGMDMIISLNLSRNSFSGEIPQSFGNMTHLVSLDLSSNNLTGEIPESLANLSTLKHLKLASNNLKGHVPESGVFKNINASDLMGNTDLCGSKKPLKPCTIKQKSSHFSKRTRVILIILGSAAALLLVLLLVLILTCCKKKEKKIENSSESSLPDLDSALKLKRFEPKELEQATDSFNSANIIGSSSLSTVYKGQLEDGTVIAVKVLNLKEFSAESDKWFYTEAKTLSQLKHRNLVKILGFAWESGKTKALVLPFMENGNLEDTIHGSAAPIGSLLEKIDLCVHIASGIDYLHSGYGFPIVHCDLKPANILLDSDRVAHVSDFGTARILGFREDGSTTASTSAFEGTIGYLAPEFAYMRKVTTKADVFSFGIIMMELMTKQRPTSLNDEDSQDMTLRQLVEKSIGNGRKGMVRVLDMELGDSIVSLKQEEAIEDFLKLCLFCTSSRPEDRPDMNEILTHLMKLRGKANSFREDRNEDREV
T1 sequence (Q94F62 26-615 partner): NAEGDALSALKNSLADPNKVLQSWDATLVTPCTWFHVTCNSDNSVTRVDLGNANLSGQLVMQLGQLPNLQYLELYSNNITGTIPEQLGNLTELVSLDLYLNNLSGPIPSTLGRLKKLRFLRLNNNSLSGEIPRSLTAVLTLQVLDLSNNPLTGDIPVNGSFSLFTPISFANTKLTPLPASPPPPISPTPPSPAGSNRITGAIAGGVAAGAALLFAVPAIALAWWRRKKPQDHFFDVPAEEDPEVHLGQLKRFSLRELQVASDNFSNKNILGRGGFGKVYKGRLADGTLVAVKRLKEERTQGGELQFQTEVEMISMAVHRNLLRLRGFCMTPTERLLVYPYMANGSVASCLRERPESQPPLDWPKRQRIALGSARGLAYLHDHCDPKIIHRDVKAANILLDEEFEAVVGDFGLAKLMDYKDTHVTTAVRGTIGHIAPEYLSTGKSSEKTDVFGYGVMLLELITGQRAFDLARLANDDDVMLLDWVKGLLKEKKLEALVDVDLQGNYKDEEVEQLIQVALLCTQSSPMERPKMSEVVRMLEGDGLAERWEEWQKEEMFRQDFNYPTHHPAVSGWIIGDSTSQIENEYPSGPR
Procedure: Bioactivity was verified for each batch of peptides by treating Col and fls2 leaf discs (prefloated on water overnight) with 1 μM peptide and measuring ROS induction as described in ([Tateda et al., 2014]).

[2] = system: Arabidopsis leaf discs; assay: Subcellular localization, uptake and accumulation of flg22 in leaf discs; format: cell-based, Arabidopsis thaliana; settings: Col leaf discs
Procedure: Leaf discs were floated (abaxial side down) on 1–5 μM TAMRA–flg22 or 5–10 μM FAM–flg22 solution (in water) at room temperature for the indicated time (lower concentrations were used for overnight treatments). Inhibitors that affect endocytosis, MG132 (Sigma-Aldrich, 50 μM) or 2,3-butanedione monoxime (BDM; Sigma-Aldrich, 50 mM) were added at the same time as the peptides. FM4-64 (Invitrogen, 6–8 μM) or 2′,7′-bis-(2-carboxyethyl)-5-(and-6)-carboxyfluorescein (BCECF)-AM (cleaved by an endogenous plant esterase to BCECF, Invitrogen, 20–40 μM) mixed with peptide solution was vacuum infiltrated for 2 min into leaf discs ([Kang et al., 2014]) prior to incubation (floating on peptide/dye solution) for the indicated time. In some experiments FAM–Y-flg22 was used with results similar to FAM–flg22.
For experiments with mixed peptides, leaf discs were floated for the indicated time on 2 μM FAM–flg22, FAM–scrambled peptide or fluorescein mixed with 1 μM TAMRA–flg22. In all experiments, leaf discs were washed after treatment by gently shaking for several minutes in water and the abaxial side was imaged by confocal or epifluorescence microscopy (see ‘Microscopy’). Fluorescence intensity profiles were generated with ImageJ, as in [Spallek et al., (2013)] and [Bozkurt et al. (2015)] (see ‘Data analysis’).
Confocal images were obtained using a Zeiss LSM710 laser-scanning confocal microscope (Zeiss, Germany) as described in [Kang et al. (2014)]. Fluorescence was visualized as follows: GFP/FAM/fluorescein/BCECF excitation (ex) 488 nm/emission (em) 495–545 nm; TAMRA ex 561 nm/em 566–620 nm; FM4-64: ex 561 nm/em 686–758 nm. Green and red fluorescence was acquired for the same field using a sequential acquisition mode.
Fluorescence intensity profiles were generated with ImageJ (http://rsb.info.nih.gov/ij, last accessed 6 April 2017) using RGB Profiler and Color Profiler. Fluorescent puncta were manually counted in 20 μm × 20 μm confocal image areas as in [Irani et al. (2012)] and [Chaparro-Garcia et al., (2015)] and shown as a fraction ([Irani et al., 2012]; [Choi et al., 2013]). […]

[3] = system: Arabidopsis plants; assay: Long-distance transport after surface application of fluorescent peptide; format: in vivo, Arabidopsis thaliana; settings: 1 d
Procedure: We applied 10–20 μl of 5 μM TAMRA–flg22 (without or with inhibitors: 50 μM MG132 or 50 mM BDM) to a filter paper disc placed on the adaxial side of one leaf of in vitro-grown Arabidopsis plants and distal tissues were imaged by confocal microscopy after 1 d. For experiments with mixed peptides, 5 μM TAMRA–flg22 + 10 μM FAM–scrambled peptides were used.
[^14C]sucrose radioactivity was quantified in a scintillation counter.

[4] = system: Arabidopsis FLS2; settings: ref Bauer et al., 2001; cited from earlier work
Description: The fate of flg22 inside plant cells is similar to that of Potato mop-top and Cauliflower mosaic virus movement proteins, which are endocytosed and delivered to pre-vacuoles/late endosomal structures ([Haupt et al., 2005]; [Carluccio et al., 2014]). Endosomal trafficking of the movement proteins is essential for the spread of viruses to distal tissues, as is endocytosis of flg22 for efficient peptide movement to systemic tissue, although ...

SMILES | effect of endocytosis inhibitor on defense activation measured by ROS production [1] | effect of inhibitor on initial binding/uptake of TAMRA–flg22 ([2]; 5 μM TAMRA–flg22 with 50 μM MG132 or 50 mM BDM added simultaneously, 1–2 h) | effect of inhibitor on overnight accumulation of TAMRA–flg22 in vacuoles ([2]; 1–2 μM TAMRA–flg22 with 50 μM MG132 or 50 mM BDM, overnight) | effect of inhibitor on long-distance movement of TAMRA–flg22 ([3]; Col, 5 μM TAMRA–flg22 with 50 μM MG132 or 50 mM BDM on filter paper disc) | reversibility of binding to microsomal membranes [4] | amount detected in distal organs ([3]; fls2 and bak1 mutants versus Col, 5 μM on filter paper disc, confocal, P<0.0002, n≥7)
CC(=O)C(C)=NO [BDM, 2,3-butanedione monoxime, reference compound] | impaired defense activation | did not prevent initial peptide binding/uptake | did not accumulate in vacuoles | prevented |  | 
CC[C@H](C)[C@H](NC(=O)[C@H](CCC(N)=O)NC(=O)[C@H](CC(C)C)NC(=O)CNC(=O)[C@H](C)NC(=O)[C@H](C)NC(=O)[C@H](CC(=O)O)NC(=O)[C@H](CC(=O)O)NC(=O)[C@H](CCCCN)NC(=O)[C@H](C)NC(=O)[C@H](CO)NC(=O)[C@H](CC(N)=O)NC(=O)[C@@H](NC(=O)[C@H](CCCNC(=N)N)NC(=O)[C@H](CO)NC(=O)CNC(=O)[C@@H](NC(=O)[C@H](CO)NC(=O)[C@H](CC(C)C)NC(=O)[C@H](CCCNC(=N)N)NC(=O)[C@@H](N)CCC(N)=O)[C@@H](C)O)[C@@H](C)CC)C(=O)N[C@@H](C)C(=O)O [flg22] (H-QRLSTGSRINSAKDDAAGLQIA-OH) |  |  |  |  | reversible | significantly less
